How the values were obtained:
[1] = target: T1, IRAK4 enzyme (Homo sapiens, UniProt Q9NWZ3); experiment: IRAK4 enzyme activity inhibition (ADP-Glo, Promega kit); assay type: biochemical; conditions: for inhibition at 0.1 µM: test compound 0.1 uM; for inhibition at 1 µM: test compound 1 uM
T1 construct: purchased Promega V2621
T1 sequence (Q9NWZ3 1-460): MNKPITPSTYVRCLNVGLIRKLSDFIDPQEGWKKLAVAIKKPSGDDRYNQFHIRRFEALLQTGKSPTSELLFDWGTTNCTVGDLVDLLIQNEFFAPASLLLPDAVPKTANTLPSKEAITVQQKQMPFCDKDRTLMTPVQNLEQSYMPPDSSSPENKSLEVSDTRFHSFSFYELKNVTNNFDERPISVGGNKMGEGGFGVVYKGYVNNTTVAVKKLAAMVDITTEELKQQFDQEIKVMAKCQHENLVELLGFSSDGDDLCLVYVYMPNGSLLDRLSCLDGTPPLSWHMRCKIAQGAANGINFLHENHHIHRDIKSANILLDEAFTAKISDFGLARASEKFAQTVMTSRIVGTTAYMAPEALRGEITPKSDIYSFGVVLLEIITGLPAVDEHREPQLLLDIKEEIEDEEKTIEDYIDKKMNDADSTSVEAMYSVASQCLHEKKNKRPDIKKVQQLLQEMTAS
Description: An experiment on IRAK4 enzyme activity inhibition of the compound of the present invention was conducted.
An IRAK4 enzyme kit (purchased from Promega, product number: V2621) was used to dilute a mixed solution between 0.1 µg/µL of myelin basic protein (MBP), which is an enzyme-reactive substrate, and 1.25 mM of ATP with a reaction buffer (40 mM Tris-HCl, pH 7.5; 20 mM MgCl2; 0.1 mg/mL BSA; 50 µM DTT) according to the instructions, so as to dispense 2 µL in a 384-well white plate, and then to add 1 µL of a test compound, which was gradient diluted starting from 1 mM, to a 384-well plate. After that, an IRAK4 enzyme was diluted with a reaction buffer to a final concentration of 5 ng/µL, then 2 µL/well was dispensed into a 384-well white plate and reacted at 37°C for 60 minutes. After completion of a reaction, an ADP-GloTM enzyme test kit (purchased from Promega, product number: V9102) was used to add 5 µL of ADP-Glo reaction reagent and cause a reaction at 37°C for 40 minutes, and then 10 µL of enzyme chromogenic reagent was added again to measure a luminescence signal using equipment for measuring absorbance (THECAN, Microplate Reader). An activity inhibition rate was calculated from a measured value, and a 50% inhibition concentration (IC50 value) was analyzed through a non-linear regression analysis based on the % inhibition for each concentration of the test compound, and is shown in Table 2.

[2] = target: T2, IRAK1 enzyme (Homo sapiens, UniProt P51617); experiment: IRAK1 enzyme activity inhibition (ADP-Glo, Promega kit); assay type: biochemical; conditions: for inhibition at 0.1 µM: test compound 0.1 uM; for inhibition at 1 µM: test compound 1 uM
T2 construct: purchased Promega VA7477
T2 sequence (P51617 whole entry): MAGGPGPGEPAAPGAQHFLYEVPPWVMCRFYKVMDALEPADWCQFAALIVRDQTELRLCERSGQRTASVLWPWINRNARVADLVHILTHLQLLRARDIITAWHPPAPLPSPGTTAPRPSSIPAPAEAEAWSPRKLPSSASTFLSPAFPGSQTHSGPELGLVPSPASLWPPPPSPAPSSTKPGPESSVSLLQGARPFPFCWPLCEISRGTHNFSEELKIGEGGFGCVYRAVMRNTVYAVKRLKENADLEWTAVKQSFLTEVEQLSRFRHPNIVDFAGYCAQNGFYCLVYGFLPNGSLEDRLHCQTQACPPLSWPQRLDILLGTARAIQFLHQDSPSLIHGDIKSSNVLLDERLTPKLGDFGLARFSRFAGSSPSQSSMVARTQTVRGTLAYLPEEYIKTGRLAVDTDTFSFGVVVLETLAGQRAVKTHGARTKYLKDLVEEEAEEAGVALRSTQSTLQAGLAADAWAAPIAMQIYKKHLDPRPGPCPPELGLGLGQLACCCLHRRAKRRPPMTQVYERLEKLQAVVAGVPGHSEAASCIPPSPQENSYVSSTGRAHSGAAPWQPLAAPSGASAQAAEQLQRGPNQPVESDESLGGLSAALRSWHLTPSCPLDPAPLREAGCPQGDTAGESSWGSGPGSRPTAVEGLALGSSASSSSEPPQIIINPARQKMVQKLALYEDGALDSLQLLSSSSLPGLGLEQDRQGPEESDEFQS
Description: An experiment on IRAK1 enzyme activity inhibition of the compound of the present invention was conducted.
An IRAK1 enzyme kit (purchased from Promega, product number: VA7477) was used to dilute a mixed solution between 0.1 µg/µL of protein kinase B (AKT), which is an enzyme-reactive substrate, and 1.25 mM of ATP with a reaction buffer (40 mM Tris-HCl, pH 7.5; 20 mM MgCl2; 0.1 mg/mL BSA; 50 µM DTT) according to the instructions, so as to dispense 2 µL in a 384-well white plate, and then to add 1 µL of a test compound, which was gradient diluted starting from 1 mM, to a 384-well white plate. After that, an IRAK1 enzyme was diluted with a reaction buffer to a final concentration of 5 ng/µL, then 2 µL/well was dispensed into a 384-well white plate and reacted at 37°C for 60 minutes. After completion of a reaction, an ADP-GloTM enzyme test kit (purchased from Promega, product number: V9102) was used to add 5 µL of ADP-Glo reaction reagent and cause a reaction at 37°C for 40 minutes, and then 10 µL of enzyme chromogenic reagent was added again to measure a luminescence signal using equipment for measuring absorbance (THECAN, Microplate Reader). An activity inhibition rate was calculated from a measured value, and a 50% inhibition concentration (IC50 value) was analyzed through a non-linear regression analysis based on the % inhibition for each concentration of the test compound, and is shown in Table 3.

Row | SMILES | inhibition at 0.1 µM [1] | inhibition at 0.1 µM [2] | inhibition at 1 µM [1] | IC50 [1] | inhibition at 1 µM [2]
1 | CN(C)CCn1cc2cc(NC(=O)c3cccc(C(N)=O)c3)c(-c3ccsc3)cc2n1 [Example 1, N-(2-(2-(dimethylamino)ethyl)-6-(thiophen-3-yl)-2H-indazol-5-yl)isophthalamide] | 19.1% | 42.4% | – | – | –
2 | CC(C)(O)CCn1cc2cc(NC(=O)c3cncc([N+](=O)[O-])c3)c(-c3ccoc3)cc2n1 [Example 5, N-(6-(furan-3-yl)-2-(3-hydroxy-3-methylbutyl)-2H-indazol-5-yl)-5-nitronicotinamide] | 27.9% | – | 35.4% | – | –
3 | CC(C)(O)CCn1cc2cc(NC(=O)c3cncc([N+](=O)[O-])c3)c(-c3ccsc3)cc2n1 [Example 7, N-(2-(3-hydroxy-3-methylbutyl)-6-(thiophen-3-yl)-2H-indazol-5-yl)-5-nitronicotinamide] | 28.1% | – | 57.7% | – | –
4 | COCCn1cc2cc(NC(=O)c3cccc([N+](=O)[O-])c3)c(N3CCOCC3)cc2n1 [Example 11, N-(2-(2-methoxyethyl)-6-morpholino-2H-indazol-5-yl)-3-nitrobenzamide] | 40.4% | – | 56.9% | – | –
5 | CS(=O)(=O)CCn1cc2cc(NC(=O)c3cccc([N+](=O)[O-])c3)c(N3CCOCC3)cc2n1 [Example 13, N-(2-(2-(methylsulfonyl)ethyl)-6-morpholino-2H-indazol-5-yl)-3-nitrobenzamide] | 18.6% | 1.3% | 19.2% | – | 0%
6 | NC(=O)COCCn1cc2cc(NC(=O)c3cccc(S(N)(=O)=O)c3)c(N3CCOCC3)cc2n1 [Example 17, N-(2-(2-(2-amino-2-oxoethoxy)ethyl)-6-morpholino-2H-indazol-5-yl)-3-sulfamoylbenzamide] | 76.7% | 33.1% | – | 330 nM | 63.4%
7 | O=C(Nc1cc2cn(CCN3CCOCC3)nc2cc1N1CCOCC1)c1cccc([N+](=O)[O-])c1 [Example 19, N-(6-morpholino-2-(2-morpholinoethyl)-2H-indazol-5-yl)-3-nitrobenzamide] | 84.7% | – | 90.1% | 31.7 nM | 38.7%
8 | CC(C)(O)CCn1cc2cc(NC(=O)c3cccc(-c4cn[nH]c4)n3)c(N3CCOCC3)cc2n1 [Example 20, N-(2-(3-hydroxy-3-methylbutyl)-6-morpholino-2H-indazol-5-yl)-6-(1H-pyrazol-4-yl)picolinamide] | 89.6% | 16.5% | – | 15.5 nM | 57%
9 | CC(C)(O)CCn1cc2cc(NC(=O)c3cccc([N+](=O)[O-])c3F)c(N3CCOCC3)cc2n1 [Example 22, 2-fluoro-N-(2-(3-hydroxy-3-methylbutyl)-6-morpholino-2H-indazol-5-yl)-3-nitrobenzamide] | 88.3% | 30.3% | – | 40.3 nM | 47.2%
10 | CC(C)(O)CCn1cc2cc(NC(=O)c3cc(F)cc([N+](=O)[O-])c3)c(N3CCOCC3)cc2n1 [Example 24, 3-fluoro-N-(2-(3-hydroxy-3-methylbutyl)-6-morpholino-2H-indazol-5-yl)-5-nitrobenzamide] | 83.9% | 26.9% | – | 13.1 nM | 45.5%
11 | CC(C)(O)CCn1cc2cc(NC(=O)c3cccc(C(N)=O)c3)c(N3CCOCC3)cc2n1 [Example 25, N-(2-(3-hydroxy-3-methylbutyl)-6-morpholino-2H-indazol-5-yl)isophthalamide] | 81.3% | 24.9% | – | 78.5 nM | 54.6%
12 | CC(C)(O)CCn1cc2cc(NC(=O)c3ccc(F)c([N+](=O)[O-])c3)c(N3CCOCC3)cc2n1 [Example 26, 4-fluoro-N-(2-(3-hydroxy-3-methylbutyl)-6-morpholino-2H-indazol-5-yl)-3-nitrobenzamide] | 71.3% | 31.7% | – | 192 nM | 40.2%
13 | CONC(=O)c1ccc(-c2cc3nn(CCC(C)(C)O)cc3cc2NC(=O)c2cccc(S(N)(=O)=O)c2)cc1 [Example 44, N-(2-(3-hydroxy-3-methylbutyl)-6-(4-(methoxycarbamoyl)phenyl)-2H-indazol-5-yl)-3-sulfamoylbenzamide] | 61.9% | – | – | – | –

Other lines, results leading:

Row | inhibition at 0.1 µM [1] | inhibition at 0.1 µM [2] | inhibition at 1 µM [1] | IC50 [1] | inhibition at 1 µM [2] | SMILES
14 | 42.1% | – | 67.4% | – | – | CC(C)(O)CCn1cc2cc(NC(=O)c3cccc([N+](=O)[O-])c3)c(-c3ccoc3)cc2n1 [Example 4, N-(6-(furan-3-yl)-2-(3-hydroxy-3-methylbutyl)-2H-indazol-5-yl)-3-nitrobenzamide]
15 | 35.5% | – | 67% | – | – | CC(C)(O)CCn1cc2cc(NC(=O)c3cccc(C(N)=O)c3)c(-c3ccoc3)cc2n1 [Example 6, N-(6-(furan-3-yl)-2-(3-hydroxy-3-methylbutyl)-2H-indazol-5-yl)isophthalamide]
16 | 21.7% | – | 50.3% | – | – | CC(C)(O)CCn1cc2cc(NC(=O)c3cccc([N+](=O)[O-])c3)c(-c3ccsc3)cc2n1 [Example 8, N-(2-(3-hydroxy-3-methylbutyl)-6-(thiophen-3-yl)-2H-indazol-5-yl)-3-nitrobenzamide]
17 | 56.9% | – | 79.5% | – | – | O=C(Nc1cc2cn(CCN3CCCCC3)nc2cc1N1CCOCC1)c1cccc([N+](=O)[O-])c1 [Example 9, N-(6-morpholino-2-(2-(piperidin-1-yl)ethyl)-2H-indazol-5-yl)-3-nitrobenzamide]
18 | 49.5% | – | 83.4% | 99.7 nM | – | CN(C)CCn1cc2cc(NC(=O)c3cccc([N+](=O)[O-])c3)c(N3CCOCC3)cc2n1 [Example 10, N-(2-(2-(dimethylamino)ethyl)-6-morpholino-2H-indazol-5-yl)-3-nitrobenzamide]
19 | 31.5% | – | – | – | – | CN(C)CCn1cc2cc(NC(=O)c3cccc(-c4nccs4)c3)c(-c3ccsc3)cc2n1 [Example 12, N-(2-(2-(dimethylamino)ethyl)-6-(thiophen-3-yl)-2H-indazol-5-yl)-3-(thiazol-2-yl)benzamide]
20 | 21.1% | – | 35.6% | – | 0% | CS(=O)(=O)CCn1cc2cc(NC(=O)c3cccc(S(=O)(=O)N4CCOCC4)c3)c(N3CCOCC3)cc2n1 [Example 14, N-(2-(2-(methylsulfonyl)ethyl)-6-morpholino-2H-indazol-5-yl)-3-(morpholinosulfonyl)benzamide]
21 | 48.8% | – | 71% | – | 17.2% | CC(C)(O)CCn1cc2cc(NC(=O)c3cccc([N+](=O)[O-])c3)cc(-c3ccoc3)c2n1 [Example 16, N-(7-(furan-3-yl)-2-(3-hydroxy-3-methylbutyl)-2H-indazol-5-yl)-3-nitrobenzamide]
22 | 54.8% | – | 65.6% | – | 23.2% | NC(=O)COCCn1cc2cc(NC(=O)c3cccc(C(N)=O)c3)c(N3CCOCC3)cc2n1 [Example 18, N-(2-(2-(2-amino-2-oxoethoxy)ethyl)-6-morpholino-2H-indazol-5-yl)isophthalamide]
23 | 65.1% | – | – | – | – | CC(C)(O)CCn1cc2cc(NC(=O)c3cccc(S(N)(=O)=O)c3)c(-c3ccc(C(=O)NCC(F)(F)F)cc3)cc2n1 [Example 42, N-(2-(3-hydroxy-3-methylbutyl)-6-(4-((2,2,2-trifluoroethyl)carbamoyl)phenyl)-2H-indazol-5-yl)-3-sulfamoylbenzamide]

Source: patent EP4737451A1 (Dong Wha Pharm. Co., Ltd., priority 2023, dated 2025)
